# What was measured:
# [1] = system: COLO 205 cells; assay: In vivo Xenograft test; set-up: species or system BALB/c Slc-nu/nu nude mice; settings: for tumor growth inhibitory effect compared with OP12-462, OP10-507 and OP10-527: COLO 205 xenograft, same method as Example 2 1.(2), FIGS. 6A to 6C; for tumor growth of COLO 205 cells (tumor volume): nude mice, 5 mg/kg body weight, tail vein, once daily Day 0 to Day 9, versus PBS
# Procedure: COLO 205 cells (1E+6 cells/0.2 ml PBS) were inoculated subcutaneously into the back of BALB/c Slc-nu/nu nude mice (female) (n=5 or 6). The day after 10 days was set as Day 0, and PBS or the test oligopeptides (OP12-462, OP10-507 and OP10-527) (5 mg/kg body weight) was administered as a 0.2 ml PBS solution in the tail vein once daily for 10 days from Day 0 to Day 9. The size of the tumor formed was measured once daily from Day 0. The tumor volume was estimated by measuring the minor axis and major axis of the tumor (tumor volume=(semi-minor axis×semi-minor axis×semi-major axis×π)/6).
# With the same method as in the above “[Example 2] 1. (2)”, the tumor growth inhibitory ability was evaluated for OP10-7, OP10-10 and OP10-11, which are typical examples of conventional HGS/C constituent oligopeptides.
# [2] = system: B16 cells or COLO 205 cells; assay: In vitro anchorage-independent growth inhibition test of OP12-462 alanine substituted peptides; type: cell-based; settings: compared with the sample untreated with an oligopeptide (vehicle) or with OP12-462, FIG. 5
# Source text: (§1) In the present example, the Ultra-Low Attachment Surface Corning Costar 96 Well Cell Culture Plate 3474 (Corning) was used as an Ultra-Low Attachment Surface (ULAS) plate, and Tissue Culture Treated Corning Costar 96 Well Cell Culture Plate 3595 (Corning) was used as a normal plate.
# (§2) As cells, mouse melanoma B16 cells and human colorectal cancer-derived COLO 205 cells were used, and Cell Counting Kit-8 (Dojindo Laboratories) was used to evaluate cell growth.
# (§3) B16 cells or COLO 205 cells (2E+3 cells/0.2 ml Opti-MEM medium, 5% FBS/well) were seeded in each well of the ULAS plate and normal plate. The test oligopeptides (OP12-462, OP10-507 and OP10-527) (0, 0.16, 0.4, 8 nmol) were each added and cultured at 37° C.
# (§4) After 7 days, 0.1 ml of Cell Counting Kit-8 solution (5-fold PBS diluted solution) was added, and the absorbance A450 nm was immediately measured and set as the TO blank value.
# (§5) After incubating at 37° C. for 2 hours, the absorbance A450 nm was measured again and set as T2. The change=T2−T0 was defined as the anchorage-independent growth activity value or the anchorage-dependent growth activity value. The cell growth activity when adding a test oligopeptide was quantified as the relative ratio to the cell growth activity when no test oligopeptide was added.
# As was in the above “1. […]
# [3] = system: mouse melanoma B16 cells; assay: Experimental lung metastasis inhibition test; type: in vivo, C57BL/6 mice; settings: B16 cells incubated with 40 nmol oligopeptide 2 hours, tail vein, colonies counted after 28 days, versus vehicle
# Procedure: The metastasis inhibitory effect of OP12-462 on the experimental lung metastasizing ability of mouse melanoma B16 cells was examined.
# First, a PBS solution (0.2 ml PBS) of mouse melanoma B16 cells (1E+5 cells) and the test oligopeptide (OP12-462) (40 nmol) was incubated at 37° C. for 2 hours. After incubation, this solution was administered to C57BL/6 mice (female) in the tail vein. The number of B16 cell metastatic tumor colonies in the mouse lung was counted 28 days after the tail vein administration of B16 cells. The ability of the oligopeptide OP12-462 to inhibit metastasis was quantified as the relative ratio of the number of the tumor colonies treated with the oligopeptide to the number of tumor colonies of B16 cells untreated with the oligopeptide.
# As was in the above “1. (3)”, an experimental lung metastasis inhibition test was conducted on the oligopeptide OP12-462 and the OP12-462 alanine substituted peptides.
# [4] = system: mouse melanoma B16 cells; assay: In vitro anchorage-dependent growth inhibition test (normal plate), B16; type: cell-based; settings: normal plate, 0, 0.16, 0.4, 8 nmol, 7 days, FIG. 2A
# Source text: (§6) Cancer cells proliferate in an anchorage-independent manner, and normal cells proliferate in an anchorage-dependent manner.
# as §1, §2, §3, §4, §5
# [5] = system: human colorectal cancer-derived COLO 205 cells; assay: In vitro anchorage-independent growth inhibition test (ULAS plate), COLO 205; type: cell-based; settings: ULAS plate, 0, 0.16, 0.4, 8 nmol, 7 days, FIG. 2B
# Source text: as §6, §1, §2, §3, §4, §5
# [6] = system: mouse melanoma B16 cells; assay: In vitro anchorage-independent growth inhibition test (ULAS plate), B16; type: cell-based; settings: ULAS plate, 0, 0.16, 0.4, 8 nmol, 7 days, FIG. 2A
# Source text: as §6, §1, §2, §3, §4, §5
# [7] = system: human colorectal cancer-derived COLO 205 cells; assay: In vitro anchorage-dependent growth inhibition test (normal plate), COLO 205; type: cell-based; settings: normal plate, 0, 0.16, 0.4, 8 nmol, 7 days, FIG. 2B
# Source text: as §6, §1, §2, §3, §4, §5
# [8] = molecular target: T1, GST-labeled HGS (Human) Recombinant Protein (Homo sapiens, UniProt O14964); assay: SPR interaction screening with immobilized GST-labeled HGS; type: binding; settings: ProteOn XPR36, GST value as blank
# T1 construct: purchased Abnova
# T1 sequence (O14964 whole entry): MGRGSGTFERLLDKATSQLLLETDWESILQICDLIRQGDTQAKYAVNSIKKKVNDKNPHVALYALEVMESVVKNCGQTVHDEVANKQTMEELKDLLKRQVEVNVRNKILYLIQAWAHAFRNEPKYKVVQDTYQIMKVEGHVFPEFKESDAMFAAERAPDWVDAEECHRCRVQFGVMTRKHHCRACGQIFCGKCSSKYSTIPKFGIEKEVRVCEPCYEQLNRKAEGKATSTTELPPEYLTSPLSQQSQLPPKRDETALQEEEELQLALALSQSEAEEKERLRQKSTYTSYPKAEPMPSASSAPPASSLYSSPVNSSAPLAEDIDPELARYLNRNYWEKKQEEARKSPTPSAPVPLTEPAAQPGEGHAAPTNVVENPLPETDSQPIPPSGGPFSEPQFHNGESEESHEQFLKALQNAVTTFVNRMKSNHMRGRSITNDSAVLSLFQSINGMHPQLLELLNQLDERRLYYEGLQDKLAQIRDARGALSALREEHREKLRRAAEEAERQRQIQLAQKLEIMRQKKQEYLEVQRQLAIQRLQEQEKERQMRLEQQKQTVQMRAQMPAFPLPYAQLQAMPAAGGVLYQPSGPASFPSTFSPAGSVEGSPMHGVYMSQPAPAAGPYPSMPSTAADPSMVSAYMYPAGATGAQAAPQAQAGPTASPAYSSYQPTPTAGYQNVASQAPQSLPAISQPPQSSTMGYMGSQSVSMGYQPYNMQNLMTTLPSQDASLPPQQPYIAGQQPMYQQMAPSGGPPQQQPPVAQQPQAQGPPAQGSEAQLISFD
# Procedure: (§7) Specifically, Glutathione S-transferase (GST)-labeled HGS (Human) Recombinant Protein (Abnova), GST-labeled STAM (Human) Recombinant Protein (Abnova), or GST (Abnova) was immobilized on a ProteOn™ GLH sensor chip.
# (§8) The interactions between the HGS/C constituent oligopeptides and these immobilized proteins were measured using the ProteOn™ XPR36 interaction array system (Bio-Rad). Using the GST value as a blank value, the dissociation rate constants (Kd) of the HGS/C-constituent oligopeptides with each of GST-labeled HGS and GST-labeled STAM were measured.
# [9] = molecular target: T2, GST-labeled STAM (Human) Recombinant Protein (Homo sapiens, UniProt Q92783); assay: SPR interaction screening with immobilized GST-labeled STAM; type: binding; settings: ProteOn XPR36, GST value as blank
# T2 construct: purchased Abnova
# T2 sequence (Q92783 1-540): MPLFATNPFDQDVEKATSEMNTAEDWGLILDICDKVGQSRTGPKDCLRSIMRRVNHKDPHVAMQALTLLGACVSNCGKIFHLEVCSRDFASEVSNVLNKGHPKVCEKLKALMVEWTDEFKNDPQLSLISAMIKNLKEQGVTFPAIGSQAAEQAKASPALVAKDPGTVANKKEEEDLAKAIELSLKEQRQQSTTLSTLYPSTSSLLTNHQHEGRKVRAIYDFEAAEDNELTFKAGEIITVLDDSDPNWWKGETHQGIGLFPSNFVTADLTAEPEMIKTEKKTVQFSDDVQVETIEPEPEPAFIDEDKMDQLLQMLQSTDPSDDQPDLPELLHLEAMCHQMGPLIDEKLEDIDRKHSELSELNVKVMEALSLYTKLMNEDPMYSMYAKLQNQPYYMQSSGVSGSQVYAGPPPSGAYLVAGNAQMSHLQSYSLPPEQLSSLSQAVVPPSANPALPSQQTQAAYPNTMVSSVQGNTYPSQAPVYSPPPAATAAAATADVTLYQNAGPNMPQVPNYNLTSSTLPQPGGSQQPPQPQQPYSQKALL
# Procedure: as §7, §8
Sequence,"tumor growth inhibitory effect compared with OP12-462, OP10-507 and OP10-527 [1]",tumor growth of COLO 205 cells (tumor volume) [1],experimental lung metastasizing ability of mouse melanoma B16 cells (number of lung tumor colonies) [3],anchorage-dependent growth activity [4],anchorage-independent growth activity [5],anchorage-independent growth activity [6],anchorage-dependent growth activity [7],"interaction with HGS, dissociation rate constant (Kd) as index [8]","interaction with STAM, dissociation rate constant (Kd) as index [9]",other results
"ALSALREEHR [OP10-7, conventional HGS/C constituent oligopeptide]",remarkably lower,a tumor growth inhibitory effect was observed,,,,,,,,
ERALYYEGLQDK [OP12-462-A3],,,remarkably inhibited,,,,,,,in vitro anchorage-independent growth [2]: equally to or more than OP12-462
ERRAYYEGLQDK [OP12-462-A4],,,remarkably inhibited,,,,,,,
ERRLYYEGAQDK [OP12-462-A9],,,remarkably inhibited,,,,,,,
ERRLYYEGLQDK [OP12-462],,statistically significantly inhibited,remarkably inhibited,did not inhibit at all or hardly inhibited,strongly inhibited,strongly inhibited,did not inhibit at all or hardly inhibited,enhanced interaction,enhanced interaction,
"EYLEVQRQLA [OP10-11, conventional HGS/C constituent oligopeptide]",remarkably lower,a tumor growth inhibitory effect was observed,,,,,,,,
"KLEIMRQKKQ [OP10-10, conventional HGS/C constituent oligopeptide]",remarkably lower,a tumor growth inhibitory effect was observed,,,,,,,,
QIQLAQKLEI [OP10-507],,statistically significantly inhibited,,did not inhibit at all or hardly inhibited,strongly inhibited,strongly inhibited,did not inhibit at all or hardly inhibited,strong interaction,strong interaction,
RRLYYEGLQD [OP10-463],,,,,,,,strong interaction,strong interaction,
VQRQLAIQRL [OP10-527],,statistically significantly inhibited,,did not inhibit at all or hardly inhibited,strongly inhibited,strongly inhibited,did not inhibit at all or hardly inhibited,strong interaction,strong interaction,

# From US11673927B2, “Antitumor agent targeting HGF-regulated tyrosine kinase substrate (HGS)” (TOKYO METROPOLITAN INSTITUTE OF MEDICAL SCIENCE, priority 2018, dated 2023)
